29 compounds from patent US9000022B2 (Exelixis Patent Company LLC, priority 2005, dated 2015) can be followed below.

The subject of the test is LXRα and/or LXRβ. Description: Co-transfection assay (LXRE luciferase reporter, CV-1 cells). The class given is cell-based, human. The settings on record: tested as described in Example 33; IC50 or EC50 for LXRα and/or LXRβ, isoform not specified; read-out: activity (IC50 or EC50 for LXR). The method, boiled down:
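CV-1 cells transiently co-transfected with full-length human LXRα or LXRβ plus RXRα, an LXRE×1-Tk-luciferase reporter and a β-galactosidase control. Compounds incubated 20 h at 37 °C (≤1% DMSO; screen at 10 μM final); luciferase read after lysis. EC50/IC50 from 8-point half-log curves (4 wells per point, ≥3 experiments); efficacy relative to a reference agonist high control and DMSO.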
Take `CCS(=O)(=O)c1cccc(-c2ccc(-n3cc(C(C)(C)O)nc3-c3nccc4ccccc34)c(Cl)c2)c1` [Example 34, 2-(1-(3-chloro-3′-(ethyl-sulfonyl)biphenyl-4-yl)-2-(isoquinolin-1-yl)-1H-imidazol-4-yl)propan-2-ol]: the IC50 or EC50 (potency, activation or inhibition) was under 1000 nM.
For `NS(=O)(=O)c1cccc(-c2ccc(-c3[nH]c(C(F)(F)F)nc3-c3ccccc3Cl)s2)c1` [Example 362, 3-{5-[4-(2-chlorophenyl)-2-(trifluoro-methyl)-1H-imidazol-5-yl]-2-thienyl}benzenesulfonamide] the value was under 1000 nM.
To `CC(C)(O)c1cn(-c2ccc(-c3ccc(CO)c(S(C)(=O)=O)c3)cc2F)c(-c2cccc(F)c2Cl)n1` [Example 125, 2-(2-(2-chloro-3-fluorophenyl)-1-(3-fluoro-4′-(hydroxymethyl)-3′-(methylsulfonyl)biphenyl-4-yl)-1H-imidazol-4-yl)propan-2-ol] belongs under 1000 nM; to `Cc1cccc(Cl)c1-c1nc(C(C)(C)O)cn1-c1ccc(-c2ccc(CO)c(S(C)(=O)=O)c2)cc1F` [Example 133, 2-(2-(2-chloro-6-methylphenyl)-1-(3-fluoro-4′-(hydroxymethyl)-3′-(methylsulfonyl)biphenyl-4-yl)-1H-imidazol-4-yl)propan-2-ol], under 1000 nM; to `CS(=O)(=O)c1cccc(-c2ccc(-n3cc(C(=O)NCCO)nc3-c3c(Cl)cccc3Cl)c(Cl)c2)c1` [Example 470, 1-(3-chloro-3′-(methylsulfonyl)biphenyl-4-yl)-2-(2,6-dichlorophenyl)-N-(2-hydroxyethyl)-1H-imidazole-4-carboxamide], under 1000 nM.
To `CC(C)(O)c1cn(-c2ccc(-c3cccc(S(C)(=O)=O)c3)cc2Cl)c(-c2cccc(F)c2Cl)n1` [Example 151, 2-(1-(3-chloro-3′-(methyl-sulfonyl)biphenyl-4-yl)-2-(2-chloro-3-fluorophenyl)-1H-imidazol-4-yl)propan-2-ol] belongs under 1000 nM; to `CS(=O)(=O)c1cccc(-c2ccc(-n3cc(C(=O)NCC(=O)O)nc3-c3c(Cl)cccc3Cl)c(Cl)c2)c1` [Example 461, 2-(1-(3-chloro-3′-(methyl-sulfonyl)biphenyl-4-yl)-2-(2,6-dichlorophenyl)-1H-imidazole-4-carboxamido)acetic acid], over 10000 nM; to `CCS(=O)(=O)c1cccc(-c2ccc(-n3cc(C(C)(C)O)nc3-c3c(C)cccc3Cl)cc2)c1` [Example 97, 2-(2-(2-chloro-6-methylphenyl)-1-(3′-(ethylsulfonyl)biphenyl-4-yl)-1H-imidazol-4-yl)propan-2-ol], 1000 to 10000 nM.
Turning to `CC(C)(O)c1cn(-c2ccc(-c3ccc(CO)cc3)cc2)c(-c2cccc(Cl)c2Cl)n1` [Example 475, 2-(2-(2,3-dichlorophenyl)-1-(4′-(hydroxymethyl)biphenyl-4-yl)-1H-imidazol-4-yl)propan-2-ol], the IC50 or EC50 (potency, activation or inhibition) was in the range of 1000 to 10000 nM.
For `CC(C)(O)c1cn(-c2c(Cl)cccc2Cl)c(-c2ccc(-c3cccc(S(C)(=O)=O)c3)s2)n1` [Example 44, 2-(1-(2,6-dichlorophenyl)-2-(5-(3-(methylsulfonyl)phenyl)thiophen-2-yl)-1H-imidazol-4-yl)propan-2-ol] the value was 1000 to 10000 nM; for `CC(C)(O)c1cn(-c2ccc(-c3ccc(CO)c(S(C)(=O)=O)c3)cc2Cl)c(-c2ccccc2Cl)n1` [Example 138, 2-(1-(3-chloro-4′-(hydroxymethyl)-3′-(methylsulfonyl)biphenyl-4-yl)-2-(2-chlorophenyl)-1H-imidazol-4-yl)propan-2-ol], under 1000 nM.
With `CC(C)(O)c1cn(Cc2ccccc2Cl)c(-c2ccc(-c3cccc(S(C)(=O)=O)c3)cc2)n1` [Example 443, 2-(1-(2-chlorobenzyl)-2-(3′-(methylsulfonyl)biphenyl-4-yl)-1H-imidazol-4-yl)propan-2-ol], the IC50 or EC50 (potency, activation or inhibition) is under 1000 nM.
As to `CC(C)(CO)NC(=O)c1cn(-c2ccc(-c3cccc(C(C)(C)O)c3)cc2Cl)c(-c2c(Cl)cccc2Cl)n1` [Example 480, 1-(3-chloro-3′-(2-hydroxypropan-2-yl)biphenyl-4-yl)-2-(2,6-dichlorophenyl)-N-(1-hydroxy-2-methylpropan-2-yl)-1H-imidazole-4-carboxamide], the IC50 or EC50 (potency, activation or inhibition) was under 1000 nM.
To `CCS(=O)(=O)c1cccc(-c2ccc(-n3cc(C(=O)NCC(C)(C)O)nc3-c3c(Cl)cccc3Cl)c(Cl)c2)c1` [Example 473, 1-(3-chloro-3′-(ethylsulfonyl)biphenyl-4-yl)-2-(2,6-dichlorophenyl)-N-(2-hydroxy-2-methylpropyl)-1H-imidazole-4-carboxamide] belongs under 1000 nM.
To `FC(F)(F)CNC(=S)c1cn(-c2ccc(Br)cc2)c(-c2ccccc2Cl)n1` [Example 396, 1-(4-bromophenyl)-2-(2-chlorophenyl)-N-(2,2,2-trifluoroethyl)-1H-imidazole-4-carbothioamide] belongs 1000 to 10000 nM; to `CCS(=O)(=O)c1cccc(-c2ccc(-n3cc(C(C)(C)O)nc3-c3ccccc3C(F)(F)F)c(F)c2)c1` [Example 110, 2-(1-(3′-(ethylsulfonyl)-3-fluoro-biphenyl-4-yl)-2-(2-(trifluoromethyl)phenyl)-1H-imidazol-4-yl)propan-2-ol], under 1000 nM.
For `CC(C)(O)c1cn(-c2ccc(-c3cccc(S(C)(=O)=O)c3)cc2)c(-c2c(Cl)cccc2-c2cccc(S(C)(=O)=O)c2)n1` [Example 458, 2-(2-(3-chloro-3′-(methyl-sulfonyl)biphenyl-2-yl)-1-(3′-(methylsulfonyl)biphenyl-4-yl)-1H-imidazol-4-yl)propan-2-ol] the value was 1000 to 10000 nM.
As for `CCS(=O)(=O)c1cccc(-c2ccc(-n3cc(C(C)(C)O)nc3-c3cccc(Cl)c3Cl)c(Cl)c2)c1` [Example 141, 2-(1-(3-chloro-3′-(ethyl-sulfonyl)biphenyl-4-yl)-2-(2,3-dichlorophenyl)-1H-imidazol-4-yl)propan-2-ol], the IC50 or EC50 (potency, activation or inhibition) was under 1000 nM.
For `Cc1cc(-c2cccc(S(C)(=O)=O)c2)ccc1-n1cc(C(C)(C)O)nc1-c1cccc(Cl)c1C` [Example 189, 2-(2-(3-chloro-2-methylphenyl)-1-(3-methyl-3′-(methylsulfonyl)biphenyl-4-yl)-1H-imidazol-4-yl)propan-2-ol] the value was under 1000 nM.
As to `CCS(=O)(=O)c1cccc(-c2ccc(-n3cc(C(C)(C)O)nc3-c3ccccc3C(F)(F)F)cc2F)c1` [Example 112, 2-(1-(3′-(ethylsulfonyl)-2-fluoro-biphenyl-4-yl)-2-(2-(trifluoro-methyl)phenyl)-1H-imidazol-4-yl)propan-2-ol], the IC50 or EC50 (potency, activation or inhibition) is under 1000 nM.
As to `CC(C)c1ccccc1-c1nc(C(C)(C)O)cn1-c1ccc(-c2cccc(S(C)(=O)=O)c2)cc1` [Example 94, 2-(2-(2-isopropylphenyl)-1-(3′-(methylsulfonyl)biphenyl-4-yl)-1H-imidazol-4-yl)propan-2-ol], the IC50 or EC50 (potency, activation or inhibition) was under 1000 nM.
For `CC(C)(O)c1cn(-c2ccc(-c3cccc(CO)c3)cc2)c(-c2cccc(Cl)c2Cl)n1` [Example 476, 2-(2-(2,3-dichlorophenyl)-1-(3′-(hydroxymethyl)biphenyl-4-yl)-1H-imidazol-4-yl)propan-2-ol] the value was 1000 to 10000 nM; for `CCOC(=O)c1cn(-c2ccc(-c3cccc(S(C)(=O)=O)c3)cc2Cl)c(-c2c(Cl)cccc2Cl)n1` [Example 68, ethyl 1-(3-chloro-3′-(methyl-sulfonyl)biphenyl-4-yl)-2-(2,6-dichlorophenyl)-1H-imidazole-4-carboxylate], under 1000 nM; for `C=C(C)c1cn(-c2ccc(-c3cccc(S(C)(=O)=O)c3)cc2)c(-c2c(Cl)cccc2Cl)n1` [Example 78, 2-(2,6-dichlorophenyl)-1-(3′-(methylsulfonyl)biphenyl-4-yl)-4-(prop-1-en-2-yl)-1H-imidazole], under 1000 nM.
Take `CC(C)(O)c1cn(-c2ccc(-c3cccc(N)c3)cc2)c(-c2ccccc2Cl)n1` [Example 405, 2-[1-(3′-aminobiphenyl-4-yl)-2-(2-chlorophenyl)-1H-imidazol-4-yl]propan-2-ol]: the IC50 or EC50 (potency, activation or inhibition) was 1000 to 10000 nM.
Regarding `CC(C)(O)c1cn(-c2ccc(-c3cccc(S(C)(=O)=O)c3)cc2F)c(-c2c(F)cccc2F)n1` [Example 130, 2-(2-(2,6-difluorophenyl)-1-(3-fluoro-3′-(methylsulfonyl)biphenyl-4-yl)-1H-imidazol-4-yl)propan-2-ol], the IC50 or EC50 (potency, activation or inhibition) was in the range of 1000 to 10000 nM.
For `COc1ccc(-c2ccc(-n3cc(C(C)(C)O)nc3Cc3cccc(Cl)c3Cl)c(C)c2)cc1S(C)(=O)=O` [Example 456, 2-(2-(2,3-dichlorobenzyl)-1-(4′-methoxy-3-methyl-3′-(methyl-sulfonyl)biphenyl-4-yl)-1H-imidazol-4-yl)propan-2-ol] the value was under 1000 nM; for `CS(=O)(=O)c1cccc(-c2ccc(-c3[nH]c(C(F)(F)F)nc3-c3ccccc3Cl)s2)c1` [Example 357, 4-(2-chlorophenyl)-5-{5-[3-(methylsulfonyl)phenyl]-2-thienyl}-2-(trifluoromethyl)-1H-imidazole], under 1000 nM.
For `CC(C)(O)c1cn(-c2ccc(-c3cccc(S(C)(=O)=O)c3)cc2F)c(-c2ccccc2Cl)n1` [Example 386, 2-{2-(2-chlorophenyl)-1-[3-fluoro-3′-(methylsulfonyl)biphenyl-4-yl]-1H-imidazol-4-yl}propan-2-ol] the value was under 1000 nM.
